Results from patent US10343977B2, “Tetrahydro-isohumulone derivatives, methods of making and using” (KINDEX PHARMACEUTICALS, INC., priority 2012, dated 2019).

Key:
Type in all cases: cell-based
[1] = test system: LPS-mediated RANTES production in THP-1 cells; experiment: LPS-mediated RANTES production in THP-1 cells; settings: Homo sapiens; for inhibition at 12.5 µM: 12.5 μM test compound, THP-1 cells, LPS 1 μg/ml, NI = no inhibition
Procedure: (§1) THIAA derivatives synthesized in Examples 1-19 were dissolved in dimethyl sufoxide (DMSO) and stored at −20° C. LPS was purchased from Sigma Chemicals (St. Louis, Miss.).
(§2) The effect of the THIAA derivatives on LPS-mediated MMP-9, IL-1β, ([…], MCP-1, RANTES, and MIP-1α was evaluated in THP-1 cells. Stimulation of THP-1 cells with LPS (1 μg/ml) activated the production of MMP-9, IL-1β, MCP-1, RANTES, and MIP-1α.
(§3) Results are summarized in Table 2, with data represented as % inhibition of inflammatory mediator production.

[2] = test system: LPS-mediated MIP-1α production in THP-1 cells; experiment: LPS-mediated MIP-1α production in THP-1 cells; settings: Homo sapiens; for inhibition at 12.5 µM: 12.5 μM test compound, THP-1 cells, LPS 1 μg/ml, NI = no inhibition
Procedure: as §1, §2, §3

[3] = test system: LPS-mediated MCP-1 production in THP-1 cells; experiment: LPS-mediated MCP-1 production in THP-1 cells; settings: Homo sapiens; for inhibition at 12.5 µM: 12.5 μM test compound, THP-1 cells, LPS 1 μg/ml, NI = no inhibition
Procedure: as §1, §2, §3

[4] = test system: LPS-mediated prostaglandin E2 (PGE2) production in RAW264.7 cells; experiment: LPS-mediated PGE2 production in RAW264.7 murine macrophage model; settings: Mus musculus, RAW264.7, 6 h, LPS 1 μg/ml, NI = no inhibition; for inhibition at 12.5 µM: 12.5 μM test compound
Procedure: as §1
(§4) The effect of the THIAA derivatives on LPS-mediated prostaglandin E2 (PGE2) and nitric oxide (NO) production was evaluated in a RAW264.7 murine macrophage model. The RAW 264.7 cell line was purchased from ATCC (Manassas, Va.) and maintained according to their instructions. Cells were grown and subcultured in 96-well plates at a density of 8×10^4 cells per well, and reached 80-90% confluence the next day. THIAA derivatives were added to the cells in serum-free medium at a final concentration of 0.1% DMSO. Following one hour of incubation with the THIAA derivatives, LPS (1 μg/ml) or DMEM medium alone was added to the cells and incubation was continued for 6 hours. Stimulation of RAW 264.7 cells with LPS (1 μg/ml) for 6 hours activated the production of PGE2 and NO. Supernatant media was collected for measurement of PGE2 levels. For NO, incubations were continued overnight. Supernatant media was collected for measurement of NO levels after 16 hours of stimulation. PGE2 levels were measured using assay kits from Assay Designs, (Ann Arbor, Mich.) and NO levels were measured using assay kits from Cayman Chemicals (Ann Harbor, Mich.).
as §3

[5] = molecular target: T1, PPARα (Homo sapiens, UniProt Q07869); experiment: PPARα reporter assay (INDIGO Biosciences); settings: luciferase reporter cells, 20 hours; for Emax at 12.5 µM / PPARα % GW590735 (20.6 nM): 12.5 μM test compound, activity compared to GW590735; for Emax at 12.5 µM: read-out: PPARα % GW590735 (20.6 nM)
T1 sequence (Q07869 1-468): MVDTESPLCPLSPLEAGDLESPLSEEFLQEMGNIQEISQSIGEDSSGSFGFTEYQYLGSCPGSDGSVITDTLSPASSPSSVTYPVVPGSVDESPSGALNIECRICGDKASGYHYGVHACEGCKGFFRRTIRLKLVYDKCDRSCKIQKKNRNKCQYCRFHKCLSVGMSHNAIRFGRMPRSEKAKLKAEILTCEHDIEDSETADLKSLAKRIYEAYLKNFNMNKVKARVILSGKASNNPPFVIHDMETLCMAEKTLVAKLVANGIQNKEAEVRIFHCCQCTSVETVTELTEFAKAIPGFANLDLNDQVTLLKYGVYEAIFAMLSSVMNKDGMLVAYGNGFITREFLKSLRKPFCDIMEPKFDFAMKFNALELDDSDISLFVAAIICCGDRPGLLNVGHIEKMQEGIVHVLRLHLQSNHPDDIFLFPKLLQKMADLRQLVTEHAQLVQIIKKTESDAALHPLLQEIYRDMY
Procedure: (§5) The functional effect of THIAA derivatives on PPARα and PPARγ activity was evaluated using a PPAR reporter assay (INDIGO Biosciences, Pa.). This assay utilizes non-human mammalian cells engineered to provide constitutive high level expression of PPARα, or PPARγ and containing a luciferase report gene specific to the appropriate PPAR. Following activation by agonist binding, PPAR induces expression of the luciferase reporter gene. Luciferase activity therefore provides a surrogate for measuring PPAR activity in agonist-treated cells.
(§6) 0.1% DMSO was used as a solvent control for each assay. Plates were incubated for 20 hours in a humidified incubator at 37° C. and 5% CO2. After incubation, the cell medium was discarded and the cells were treated with 100 μL of luciferase detection reagent for 15 minutes. Plates were analyzed using a luminometer (Victor2, Perkin Elmer). Average relative light unit (RLU) and standard deviation were measured.

[6] = molecular target: T2, PPARγ (Homo sapiens, UniProt P37231); experiment: PPARγ reporter assay (INDIGO Biosciences); settings: 20 h, read-out: PPARγ % rosiglitazone (500 nM), 12.5 μM test compound; luciferase reporter cells, 20 hours; activity compared to rosiglitazone
T2 sequence (P37231 1-505): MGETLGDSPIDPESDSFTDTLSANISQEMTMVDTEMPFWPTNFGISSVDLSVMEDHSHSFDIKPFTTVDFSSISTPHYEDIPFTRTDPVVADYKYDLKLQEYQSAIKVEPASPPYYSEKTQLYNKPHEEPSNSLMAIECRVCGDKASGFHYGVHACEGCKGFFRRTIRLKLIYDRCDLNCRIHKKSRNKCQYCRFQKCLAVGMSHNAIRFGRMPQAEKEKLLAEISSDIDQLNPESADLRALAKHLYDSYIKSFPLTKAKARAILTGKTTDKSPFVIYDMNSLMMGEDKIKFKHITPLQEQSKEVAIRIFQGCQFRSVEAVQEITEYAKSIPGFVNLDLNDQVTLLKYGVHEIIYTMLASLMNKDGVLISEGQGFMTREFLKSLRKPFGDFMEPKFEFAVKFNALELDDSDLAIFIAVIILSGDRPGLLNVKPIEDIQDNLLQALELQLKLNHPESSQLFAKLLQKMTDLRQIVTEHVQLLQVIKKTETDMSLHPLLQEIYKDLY
Procedure: as §5, §6

[7] = test system: LPS-mediated IL-6 production in THP-1 cells; experiment: LPS-mediated IL-6 production in THP-1 cells; settings: Homo sapiens; for inhibition at 12.5 µM: 12.5 μM test compound, THP-1 cells, LPS 1 μg/ml, NI = no inhibition
Procedure: as §1, §2, §3

[8] = test system: LPS-mediated nitric oxide (NO) production in RAW264.7 cells; experiment: LPS-mediated NO production in RAW264.7 murine macrophage model; settings: Mus musculus, RAW264.7, 16 h, LPS 1 μg/ml; for inhibition at 12.5 µM: 12.5 μM test compound, NI = no inhibition
Procedure: as §1, §4, §3

[9] = test system: LPS-mediated inflammatory mediators in RAW264.7 and THP-1 cells; experiment: Mean inhibition across all six inflammatory mediators; settings: for inhibition at 12.5 µM: 12.5 μM test compound
Procedure: as §4, §2, §3
Mean inhibition across all six inflammatory mediators was calculated for each of the THIAA derivatives.

Emax at 12.5 µM [5] [%]	Emax at 12.5 µM [6] [%]	PPARα % GW590735 (20.6 nM) [5]	PPARα activity (positive control) ([5]; GW590735 21-5000 nM)	SMILES	inhibition at 12.5 µM [1] [%]	inhibition at 12.5 µM [2] [%]	inhibition at 12.5 µM [3] [%]	inhibition at 12.5 µM [4] [%]	inhibition at 12.5 µM [7] [%]	inhibition at 12.5 µM [8] [%]	inhibition at 12.5 µM [9] [%]	inhibition at 10 µM ([1]; THP-1) [%]	inhibition at 10 µM ([2]; THP-1) [%]	inhibition at 10 µM ([3]; THP-1) [%]	inhibition at 10 µM ([4]; 10 μM (rosiglitazone)) [%]	inhibition at 10 µM ([7]; THP-1) [%]	inhibition at 10 µM ([8]; 10 μM (rosiglitazone)) [%]	inhibition at 10 µM ([9]; 10 μM (rosiglitazone)) [%]
< 5	< 5	–	–	CN/C(CC(C)C)=C1\C(=O)[C@H](CCC(C)C)[C@@](O)(C(=O)CCC(C)C)C1=O [KDT0020, (4R,5R)-4-hydroxy-5-(3-methylbutyl)-2-[3-methyl-1-(methylamino)butylidene]-4-(4-methylpentanoyl)cyclopentane-1,3-dione]	35	< 20	82	75	70	< 20	46	–	–	–	–	–	–	–
< 5	–	no effect	–	CC(C)CCC(=O)[C@@]1(OC(=O)OCC(C)C)C(O)=C(C(=O)C(C)C)C(=O)[C@@H]1CCC(C)C [KDT0037, (1S,5R)-2-hydroxy-5-(3-methylbutyl)-1-(4-methylpentanoyl)-3-(2-methylpropanoyl)-4-oxocyclopent-2-en-1-yl 2-methylpropyl carbonate]	83	22	98	–	61	–	72	–	–	–	–	–	–	–
< 5	< 5	–	–	CC(C)CCC(=O)[C@@]1(O)C(O)=C(C(=O)CC(C)C)C(=O)[C@H]1CCC(C)C [KDT700, (4S,5S)-3,4-dihydroxy-2-(3-methylbutanoyl)-5-(3-methylbutyl)-4-(4-methylpentanoyl)cyclopent-2-en-1-one]	64	36	88	< 20	< 20	< 0	34	–	–	–	–	–	–	–
< 5	≥ 5	no effect	–	CCCCCCCCCC(=O)O[C@]1(C(=O)CCC(C)C)C(O)=C(C(=O)C(C)C)C(=O)[C@@H]1CCC(C)C [KDT0036, (1S,5R)-2-hydroxy-5-(3-methylbutyl)-1-(4-methylpentanoyl)-3-(2-methylpropanoyl)-4-oxocyclopent-2-en-1-yl decanoate]	88	25	98	45	83	97	73	–	–	–	–	–	–	–
< 5	< 5	–	–	CC(C)CCC(=O)[C@@]1(O)C(=O)/C(=C(\CC(C)C)NCc2ccccc2)C(=O)[C@@H]1CCC(C)C [KDT0024, (4R,5R)-2-[1-(benzylamino)-3-methylbutylidene]-4-hydroxy-5-(3-methylbutyl)-4-(4-methylpentanoyl)cyclopentane-1,3-dione]	20	< 0	80	81	53	27	44	–	–	–	–	–	–	–
< 5	≥ 5	no effect	–	CC(C)CCC(=O)[C@@]1(OC(=O)C(C)(C)C)C(O)=C(C(=O)CC(C)C)C(=O)[C@@H]1CCC(C)C [KDT0033, (1S,5R)-2-hydroxy-3-(3-methylbutanoyl)-5-(3-methylbutyl)-1-(4-methylpentanoyl)-4-oxocyclopent-2-en-1-yl 2,2-dimethylpropanoate]	97	95	100	–	87	> 50	~90	–	–	–	–	–	–	–
9	5	dual PPARα and PPARγ agonists	–	CC(C)CCC(=O)[C@@]1(OC(=O)CC(C)(C)C)C(O)=C(C(=O)CC(C)C)C(=O)[C@@H]1CCC(C)C [KDT0034, (1S,5R)-2-hydroxy-3-(3-methylbutanoyl)-5-(3-methylbutyl)-1-(4-methylpentanoyl)-4-oxocyclopent-2-en-1-yl 3,3-dimethylbutanoate]	98	94	100	–	84	> 50	~90	–	–	–	–	–	–	–

More lines, now with the values behind:

SMILES	Emax at 12.5 µM [5] [%]	Emax at 12.5 µM [6] [%]	PPARα % GW590735 (20.6 nM) [5]	PPARα activity (positive control) ([5]; GW590735 21-5000 nM)	inhibition at 12.5 µM [1] [%]	inhibition at 12.5 µM [2] [%]	inhibition at 12.5 µM [3] [%]	inhibition at 12.5 µM [4] [%]	inhibition at 12.5 µM [7] [%]	inhibition at 12.5 µM [8] [%]	inhibition at 12.5 µM [9] [%]	inhibition at 10 µM ([1]; THP-1) [%]	inhibition at 10 µM ([2]; THP-1) [%]	inhibition at 10 µM ([3]; THP-1) [%]	inhibition at 10 µM ([4]; 10 μM (rosiglitazone)) [%]	inhibition at 10 µM ([7]; THP-1) [%]	inhibition at 10 µM ([8]; 10 μM (rosiglitazone)) [%]	inhibition at 10 µM ([9]; 10 μM (rosiglitazone)) [%]
CO/N=C(/CC(C)C)C1=C(O)[C@](O)(/C(CCC(C)C)=N/OC)[C@@H](CCC(C)C)C1=O [KDT0001/2, (4R,5R)-3,4-dihydroxy-2-(N-methoxy-3-methylbutanimidoyl)-4-(N-methoxy-4-methylpentanimidoyl)-5-(3-methylbutyl)cyclopent-2-en-1-one]	< 5	< 5	–	–	45	< 20	74	55	60	< 0	39	–	–	–	–	–	–	–
CN(CCOc1ccc(CC2SC(=O)NC2=O)cc1)c1ccccn1 (stereo not shown) [Rosiglitazone, reference compound]	–	–	–	–	–	–	–	–	–	–	–	24	< 0	< 0	< 0	< 0	6	< 20
Cc1nc(-c2ccc(C(F)(F)F)cc2)sc1C(=O)NCc1ccc(OC(C)(C)C(=O)O)cc1 [GW590735, reference compound]	–	–	–	increased the activity	–	–	–	–	–	–	–	–	–	–	–	–	–	–
